A short description of one data set: Solubility of KMD-3213. The data set is classed as physicochemical.
A short description of a further data set: Stability of KMD-3213. Format: physicochemical.

Structures are written as SMILES.

As for `C[C@H](Cc1cc2c(c(C(N)=O)c1)N(CCCO)CC2)NCCOc1ccccc1OCC(F)(F)F` [KMD-3213], the solubility entry is reported as “hardly soluble” in the data set “Solubility of KMD-3213” (in a neutral medium such as water) and “relatively a high solubility” in “Solubility of KMD-3213” (in an acidic medium). For the same molecule, the stability entry in “Stability of KMD-3213” (against a light exposure) is “relatively unstable”; in “Stability of KMD-3213” (in acidic conditions), “stable”.
